≈ marks a conversion by molar mass, not a printed value. Read-outs that look alike come from different tables or passages of the source.
Columns and labels:
[1] = tested on: Enterobacter cloacae GN 5797; experiment: Induction of β-lactamase by β-lactam antibiotics; format: cell-based; conditions: induced β-lactamase activity of crude enzyme; Concentration 10 µg/ml; Incubation time 3 hr; Substrate: 100 µM of cephaloridine
Method: The assay method for induction of β-lactamase by β-latam antibiotics was as follows: The test organism, Enterobacter cloacae GN 5797, was grown overnight in Mueller Hinton broth (Dlfco Laboratories, Detroit, Mich.) at 37°C. The culture was diluted l0-fold into 20 ml of the flesh medium and incubated with shaking at 37°C. After 2 hours of incubation, antibiotics were added to final concentrations of 50 µg/ml, l0 µg/ml and l µg/ml, and the incubation was continued. At l hour intervals after the addition of antibiotic, 5 ml of sample was taken, and immediately added with 0.l ml of 50 mM sodium azide. The cells were harvested and washed with 50 mM phosphate buffer (pH 7.0). The cells were suspended in 5 ml of 50 mM phosphate buffer and disrupted with a sonicater in an ice-water bath. The broken cells were centrifuged at l6,500 G for 40 minutes at 4°C, and the resulting supernatant fluid was used as the crude enzyme. β-Lactamase activity was determined by a spectrophotometric method (Antmicrob. Agents Chemother. 17, 355-358, 1980) with cephaloridine as substrate. The concentration of protein was determined by the method of Lowry (J. Biol. Chem. 193, 265-275, 1951).

[2] = tested on: Ps.cepacia 23; experiment: In vitro antibacterial activity, agar plate dilution method (MIC); format: cell-based, Pseudomonas cepacia; conditions: Burkholderia cepacia; Ps.cepacia 23; Mueller Hinton agar, inoculum 10⁶ CFU/ml, 37°C, 16 hours; read-out: Minimum Inhibitory Concentration (MIC: µg/ml)
[3] = tested on: Ps.maltophilia GN 12873; experiment: as above; format: cell-based, Pseudomonas maltophilia; conditions: Stenotrophomonas maltophilia, GN12873; Ps.maltophilia GN 12873 (β-Lactamase-producing strain); Mueller Hinton agar, inoculum 10⁶ CFU/ml, 37°C, 16 hours; read-out: Minimum Inhibitory Concentration (MIC: µg/ml)
[4] = tested on: E.coli CSH(RE45); experiment: as above; format: cell-based; conditions: Escherichia coli, 16 h, read-out: Minimum Inhibitory Concentration (MIC: µg/ml)
[5] = tested on: S.marcescens IAM 1184; experiment: as above; format: cell-based; conditions: Serratia marcescens, IAM1184, 16 h, read-out: Minimum Inhibitory Concentration (MIC: µg/ml)
[6] = tested on: S.marcescens No. 16-2; experiment: as above; format: cell-based; conditions: Serratia marcescens, NO.162; S.marcescens No. 16-2 (β-Lactamase-producing strain); Mueller Hinton agar, inoculum 10⁶ CFU/ml, 37°C, 16 hours; read-out: Minimum Inhibitory Concentration (MIC: µg/ml)
[7] = tested on: S.aureus JS1; experiment: as above; format: cell-based; conditions: Staphylococcus aureus; S.aureus JS1 (β-Lactamase-producing strain); Mueller Hinton agar, inoculum 10⁶ CFU/ml, 37°C, 16 hours; read-out: Minimum Inhibitory Concentration (MIC: µg/ml)
[8] = tested on: A.calcoaceticus No. 4; experiment: as above; format: cell-based; conditions: Acinetobacter calcoaceticus; A.calcoaceticus No. 4; Mueller Hinton agar, inoculum 10⁶ CFU/ml, 37°C, 16 hours; read-out: Minimum Inhibitory Concentration (MIC: µg/ml)
[9] = tested on: K.oxytoca GN10650; experiment: as above; format: cell-based; conditions: Klebsiella oxytoca; K.oxytoca GN10650 (β-Lactamase-producing strain); Mueller Hinton agar, inoculum 10⁶ CFU/ml, 37°C, 16 hours; read-out: Minimum Inhibitory Concentration (MIC: µg/ml)
[10] = tested on: E.cloacae 963; experiment: as above; format: cell-based; conditions: read-out: Minimum Inhibitory Concentration (MIC: µg/ml)
[11] = tested on: K.pneumoniae PCI-602; experiment: as above; format: cell-based; conditions: Klebsiella pneumoniae, PCI602; K.pneumoniae PCI-602; Mueller Hinton agar, inoculum 10⁶ CFU/ml, 37°C, 16 hours; read-out: Minimum Inhibitory Concentration (MIC: µg/ml)
[12] = tested on: Ps.aeruginosa IFO3445; experiment: as above; format: cell-based; conditions: Pseudomonas aeruginosa; Ps.aeruginosa IFO3445; Mueller Hinton agar, inoculum 10⁶ CFU/ml, 37°C, 16 hours; read-out: Minimum Inhibitory Concentration (MIC: µg/ml)
[13] = tested on: K.pneumoniae No. 42; experiment: as above; format: cell-based; conditions: Klebsiella pneumoniae; K.pneumoniae No. 42 (β-Lactamase-producing strain); Mueller Hinton agar, inoculum 10⁶ CFU/ml, 37°C, 16 hours; read-out: Minimum Inhibitory Concentration (MIC: µg/ml)
[14] = tested on: S.aureus 209P NIHJ-JC1; experiment: as above; format: cell-based; conditions: Staphylococcus aureus; S.aureus 209P NIHJ-JC1; Mueller Hinton agar, inoculum 10⁶ CFU/ml, 37°C, 16 hours; read-out: Minimum Inhibitory Concentration (MIC: µg/ml)
[15] = tested on: E.coli NIHJ JC2; experiment: as above; format: cell-based; conditions: Escherichia coli, NIHJJC2; E.coli NIHJ JC2; Mueller Hinton agar, inoculum 10⁶ CFU/ml, 37°C, 16 hours; read-out: Minimum Inhibitory Concentration (MIC: µg/ml)
[16] = tested on: S.epidermidis IAM12012; experiment: as above; format: cell-based; conditions: Staphylococcus epidermidis; S.epidermidis IAM12012; Mueller Hinton agar, inoculum 10⁶ CFU/ml, 37°C, 16 hours; read-out: Minimum Inhibitory Concentration (MIC: µg/ml)
[17] = tested on: E.coli CSH2 (RK1); experiment: as above; format: cell-based; conditions: Escherichia coli, 16 h, read-out: Minimum Inhibitory Concentration (MIC: µg/ml)
[18] = tested on: C.freundii GN346/16; experiment: as above; format: cell-based; conditions: Citrobacter freundii; C.freundii GN346/16; Mueller Hinton agar, inoculum 10⁶ CFU/ml, 37°C, 16 hours; read-out: Minimum Inhibitory Concentration (MIC: µg/ml)
[19] = tested on: E.cloacae Nek 39; experiment: as above; format: cell-based; conditions: Enterobacter cloacae, NEK39; E.cloacae Nek 39 (β-Lactamase-producing strain); Mueller Hinton agar, inoculum 10⁶ CFU/ml, 37°C, 16 hours; read-out: Minimum Inhibitory Concentration (MIC: µg/ml)
[20] = tested on: Ps.aeruginosa AK 109; experiment: as above; format: cell-based; conditions: Pseudomonas aeruginosa, AK109; Ps.aeruginosa AK 109; Mueller Hinton agar, inoculum 10⁶ CFU/ml, 37°C, 16 hours; read-out: Minimum Inhibitory Concentration (MIC: µg/ml)
[21] = tested on: C.freundii GN346; experiment: as above; format: cell-based; conditions: Citrobacter freundii; C.freundii GN346 (β-Lactamase-producing strain); Mueller Hinton agar, inoculum 10⁶ CFU/ml, 37°C, 16 hours; read-out: Minimum Inhibitory Concentration (MIC: µg/ml)
[22] = tested on: P.vulgaris HX-19; experiment: as above; format: cell-based; conditions: Proteus vulgaris, HX19; P.vulgaris HX-19; Mueller Hinton agar, inoculum 10⁶ CFU/ml, 37°C, 16 hours; read-out: Minimum Inhibitory Concentration (MIC: µg/ml)
[23] = tested on: Ps.aeruginosa AKR17; experiment: as above; format: cell-based; conditions: Pseudomonas aeruginosa; Ps.aeruginosa AKR17; Mueller Hinton agar, inoculum 10⁶ CFU/ml, 37°C, 16 hours; read-out: Minimum Inhibitory Concentration (MIC: µg/ml)
[24] = tested on: M.luteus ATCC9341; experiment: as above; format: cell-based; conditions: Micrococcus luteus; M.luteus ATCC9341; Mueller Hinton agar, inoculum 10⁶ CFU/ml, 37°C, 16 hours; read-out: Minimum Inhibitory Concentration (MIC: µg/ml)
[25] = tested on: S.aureus BB5703; experiment: as above; format: cell-based; conditions: Staphylococcus aureus; S.aureus BB5703; Mueller Hinton agar, inoculum 10⁶ CFU/ml, 37°C, 16 hours; read-out: Minimum Inhibitory Concentration (MIC: µg/ml)
[26] = tested on: P.vulgaris No. 33; experiment: as above; format: cell-based; conditions: Proteus vulgaris, read-out: Minimum Inhibitory Concentration (MIC: µg/ml)
[27] = tested on: E.coli GN5482; experiment: as above; format: cell-based; conditions: Escherichia coli; E.coli GN5482 (β-Lactamase-producing strain); Mueller Hinton agar, inoculum 10⁶ CFU/ml, 37°C, 16 hours; read-out: Minimum Inhibitory Concentration (MIC: µg/ml)
[28] = tested on: M.morganii GN5407; experiment: as above; format: cell-based; conditions: Morganella morganii; M.morganii GN5407 (β-Lactamase-producing strain); Mueller Hinton agar, inoculum 10⁶ CFU/ml, 37°C, 16 hours; read-out: Minimum Inhibitory Concentration (MIC: µg/ml)

Row | Compound | MIC [2] [µg/mL] | MIC [3] [µg/mL] | MIC [4] [µg/mL] | MIC [5] [µg/mL] | MIC [6] [µg/mL] | MIC [7] [µg/mL] | MIC [8] [µg/mL] | MIC [9] [µg/mL] | MIC [11] [µg/mL] | MIC [12] [µg/mL] | MIC [13] [µg/mL] | MIC [14] [µg/mL] | MIC [15] [µg/mL] | MIC [16] [µg/mL] | MIC [17] [µg/mL] | MIC [18] [µg/mL] | MIC [19] [µg/mL] | MIC [20] [µg/mL] | MIC [21] [µg/mL] | MIC [22] [µg/mL] | further results
1 | CO[C@@]1(NC(=O)Cc2cccs2)C(=O)N2C(C(=O)O)=C(COC(N)=O)CS[C@@H]21 [Cefoxitin, reference compound] |  |  |  |  |  |  |  |  |  |  |  |  |  |  |  |  |  |  |  |  | Specific activity (unit/mg protein) [1]: 0.238 unit/mg protein
2 | C=C(O/N=C(\C(=O)NC1C(=O)N2C(C(=O)[O-])=C(C[n+]3ccc4cc(O)c(O)cc4c3)CSC12)c1csc(N)n1)C(=O)O (stereo not drawn) [Ex. 6, 7-[2-(2-aminothiazol-4-yl)-2-(l-carboxy-l-vinyloxyimino)acetamido]-3-(6,7-dihydroxy-2-isoquinolinio)methyl-3-cephem-4-carboxylate] | 0.025 (≈ 0.0408 µM) | 25 (≈ 40.8 µM) | 0.025 (≈ 0.0408 µM) | 0.0125 (≈ 0.0204 µM) | 0.1 (≈ 0.163 µM) | 100 (≈ 163 µM) | 0.2 (≈ 0.326 µM) | 0.05 (≈ 0.0816 µM) | < 0.006 | 1.56 (≈ 2.55 µM) | 0.025 (≈ 0.0408 µM) | 25 (≈ 40.8 µM) | 0.1 (≈ 0.163 µM) | 12.5 (≈ 20.4 µM) | 0.0125 (≈ 0.0204 µM) | 1.56 (≈ 2.55 µM) | 0.025 (≈ 0.0408 µM) | 0.39 (≈ 0.637 µM) | 50 (≈ 81.6 µM) | < 0.006 | MIC ([10]; Enterobacter cloacae, 963, 16 h): 0.0125 µg/mL (≈ 0.0204 µM); MIC [23]: 1.56 µg/mL (≈ 2.55 µM); MIC [24]: 6.25 µg/mL (≈ 10.2 µM); MIC [25]: 50 µg/mL (≈ 81.6 µM); MIC ([26]; NO.33, 16 h): 0.0125 µg/mL (≈ 0.0204 µM); MIC [27]: 0.2 µg/mL (≈ 0.326 µM); MIC [28]: 0.05 µg/mL (≈ 0.0816 µM)
3 | C=CCON=C(C(=O)NC1C(=O)N2C(C(=O)[O-])=C(C[n+]3ccc4cc(O)c(O)cc4c3)CS[C@H]12)c1csc(N)n1 (stereo partly shown) [Ex. 3, 7-[2-allyloxyimino-2-(2-aminothiazol-4-yl)acetamido]-3-(6,7-dihydroxy-2-isoquinolinio)methyl-3-cephem-4-carboxylate] | < 0.006 | > 100 | 0.025 (≈ 0.0429 µM) | 0.0125 (≈ 0.0215 µM) | 1.56 (≈ 2.68 µM) | 12.5 (≈ 21.5 µM) | 0.2 (≈ 0.343 µM) | 3.12 (≈ 5.36 µM) | < 0.006 | 0.39 (≈ 0.669 µM) | 0.1 (≈ 0.172 µM) | 0.78 (≈ 1.34 µM) | 0.1 (≈ 0.172 µM) | 0.39 (≈ 0.669 µM) | 0.0125 (≈ 0.0215 µM) | 0.39 (≈ 0.669 µM) | 0.1 (≈ 0.172 µM) | 0.78 (≈ 1.34 µM) | 50 (≈ 85.8 µM) | < 0.006 | MIC ([10]; Enterobacter cloacae, E.cloacae 963, Mueller Hinton agar, inoculum 10⁶ CFU/ml, 37°C, 16 hours): 0.05 µg/mL (≈ 0.0858 µM); MIC [23]: 100 µg/mL (≈ 172 µM); MIC [24]: 0.2 µg/mL (≈ 0.343 µM); MIC [25]: 6.25 µg/mL (≈ 10.7 µM); MIC ([26]; P.vulgaris No. 33 (β-Lactamase-producing strain), Mueller Hinton agar, inoculum 10⁶ CFU/ml, 37°C, 16 hours): 0.1 µg/mL (≈ 0.172 µM); MIC [27]: 0.39 µg/mL (≈ 0.669 µM); MIC [28]: 0.05 µg/mL (≈ 0.0858 µM)

From EP0238060B1, “Cephalosporin derivatives, processes for their preparation and antibacterial agents” (Banyu Pharmaceutical Co., Ltd., priority 1986, dated 1987)
